This passage reports IC50 results from patent US20220354860A1, “HETEROCYCLIC DERIVATIVES AND USE THEREOF” (Fochon Pharmaceuticals, Ltd., priority 2019, published 2022).

What is called IC50 is the concentration that gives 50% inhibition. Read a high IC50 as weaker potency.

The target of experiment [1] is T1, URAT1 (Homo sapiens, UniProt Q96S37).
T1 sequence (Q96S37 1-553): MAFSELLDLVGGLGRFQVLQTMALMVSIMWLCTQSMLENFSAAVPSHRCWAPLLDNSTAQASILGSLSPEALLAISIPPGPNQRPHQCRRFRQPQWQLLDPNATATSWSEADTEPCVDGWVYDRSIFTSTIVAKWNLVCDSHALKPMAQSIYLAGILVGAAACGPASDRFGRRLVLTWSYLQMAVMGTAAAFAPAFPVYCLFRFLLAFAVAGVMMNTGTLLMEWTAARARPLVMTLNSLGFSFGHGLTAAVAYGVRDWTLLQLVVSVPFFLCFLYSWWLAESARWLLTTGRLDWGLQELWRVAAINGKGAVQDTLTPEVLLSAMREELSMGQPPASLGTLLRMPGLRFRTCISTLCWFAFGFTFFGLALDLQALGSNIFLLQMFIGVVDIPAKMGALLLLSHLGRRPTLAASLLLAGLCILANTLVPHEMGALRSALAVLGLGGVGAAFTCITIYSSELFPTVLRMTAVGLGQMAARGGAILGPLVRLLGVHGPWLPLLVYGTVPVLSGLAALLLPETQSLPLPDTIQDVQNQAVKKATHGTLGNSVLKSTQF
Description: URAT1 inhibitor activity, 14C-uric acid uptake in HEK293-URAT1 cells. It is filed as cell-based. Particulars: URAT1 inhibition, 14C-Uric acid 5.0 μmol/L, 2 min. Here is the method: The potency of the compounds of formula (I) as inhibitors of the URAT1 was determined as follow.
HEK293-URAT1 cell Lines were donated by Japan Fuji Biomedical Research Institute. Negative control cell of HEK293 (MOCK cells) which was transfected with pcDNA3.1 empty vector. HEK293-URAT1 cell lines and MOCK cell lines were cultured in complete growth medium consisting of DMEM supplemented with 10% FBS, penicillin and streptomycin.
Preparation of working solution: Each stock solutions was diluted to different concentrations (6, 20, 60, 200 and 600 μmol/L) with DMSO as 200× working solution, which was then diluted to 2× compound working solution with HBSS (Cl^− free) buffer. Radiolabeled substrate ^14C-Uric acid solution was diluted with HBSS (Cl^− free) buffer to obtain 2× working solution which was mixed with an equal volume of 2× compound working solution to obtain the mixture of radiolabeled substrate and compound working solution.
HER293-URAT1 and MOCK cells were seeded onto 24-well plates at the density of 1.5×10^6 cells per well. The cells were incubated at 37° C., 5% CO2 overnight. After cultured for approximately 2 to 3 days, cells were used for the experiments. The culture medium were removed from the wells, and cells were washed with HBSS (Cl^− free) and incubated in 37° C. HBSS (Cl^− free) for 10 min. HBSS was replaced with 500 μL of the mixture of radiolabeled substrate and compound working solution. The final concentration of ^14C-Uric acid in the assay was 5.0 μmol/L. Plates were incubated at 37° C., 5% CO2 for 2 min, and the reaction was stopped by the addition of pre-chilled HBSS (Cl^− free) by washing three times. 400 μL, NaOH (0.1 mmol/L) was added to lyse the cells and the cell lysate was collected to scintillation vials, and 3 ml scintillant (Aquasol-2, PerkinElmer) was added and after mixing completely, the radioactivity was counted by Tri-Carb 2910TR liquid scintillation counter. Each concentration of compounds, positive control and negative control were repeated in two wells (n=2). Inhibition % data were calculated using the formula:
Inhibition=[100×(U−U0)/(Uc−U0)]%, and analyzed using Prism5 software. • U0: Average of signals of MOCK cells; • Uc: Average of signals of radiolabeled substrate. The half inhibition concentration of the tested compounds to URAT1 were analyzed using Prism 5 software.

Another experiment concerns the target T2, CYP2C9 (Homo sapiens, UniProt P11712).
T2 construct: conducted using human liver microsomes; from tissue; host or cells: human liver microsomes
Description: CYP inhibition assay in human liver microsomes. Format: in vitro ADME. Particulars: human liver microsomes 0.200 mg/mL, 37° C. for 10 minutes. Here is the method:
The CYP inhibition assay was conducted using human liver microsomes at 0.200 mg/mL with a marker substrate for CYP2C9. The substrate concentrations employed were similar to published Michaelis-Menten constants (Km) for each of the respective reactions. The test compounds were added at 8 concentrations (0, 0.0500, 0.150, 0.500, 1.50, 5.00, 15.0, and 50.0 μM). A known inhibitor for the isozyme, at a single concentration (3.00 μM) in duplicates, was selected as the positive control. The reaction in the presence of the organic solvent instead of test compounds served as vehicle control. The final content of organic solvent in all the reactions was up to 0.5% DMSO and 0.5% methanol.
Reactions were initiated by adding NADPH followed by incubation at 37° C. for 10 minutes. And reactions were terminated by adding a 2-fold volume ice-cold acetonitrile with internal standards. Samples were processed and analyzed by liquid chromatography tandem mass spectrometry (LC-MS/MS).The results are given in the Table 4.
Background: Liver microsomes are a subcellular fraction often used to study metabolism.

Experiment [2] deals with T1, URAT1. The experiment in a line: URAT1 inhibitor activity, MDCK cells. It is filed as cell-based. Details: host or cells: MDCK. The settings on record: URAT1 inhibition.

T2 sequence (P11712 whole entry): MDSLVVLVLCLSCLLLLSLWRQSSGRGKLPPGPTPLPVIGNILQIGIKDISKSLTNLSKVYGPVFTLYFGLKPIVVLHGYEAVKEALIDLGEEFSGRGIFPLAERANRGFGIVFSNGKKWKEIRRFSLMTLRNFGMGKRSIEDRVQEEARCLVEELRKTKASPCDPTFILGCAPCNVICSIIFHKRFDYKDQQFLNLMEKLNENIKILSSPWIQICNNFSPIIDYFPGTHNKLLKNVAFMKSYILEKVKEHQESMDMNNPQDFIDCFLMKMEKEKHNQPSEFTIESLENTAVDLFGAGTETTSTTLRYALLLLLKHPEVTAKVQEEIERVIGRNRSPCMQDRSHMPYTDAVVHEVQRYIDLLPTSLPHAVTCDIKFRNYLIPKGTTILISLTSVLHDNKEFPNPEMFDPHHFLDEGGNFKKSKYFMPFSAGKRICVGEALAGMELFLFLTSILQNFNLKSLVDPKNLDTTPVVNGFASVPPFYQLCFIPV

With `C[C@@H]1CN(C(=O)c2cc(Br)c(O)c(Br)c2)c2c(cnn2C)O1` [Example 1, (R)-(3,5-dibromo-4-hydroxyphenyl)(1,5-dimethyl-5,6-dihydropyrazolo[4,3-b][1,4]oxazin-7(1H)-yl)methanone], the concentration for half-maximal inhibition (IC50) against URAT1 [1] stood at 62 nM; against CYP2C9 it was 15500 nM; against URAT1 [2], 25 nM.

Regarding `Cn1ncc2c1N(C(=O)c1cc(Br)c(O)c(Br)c1)CCO2` [Example 2, (3,5-Dibromo-4-hydroxyphenyl)(1-methyl-5,6-dihydropyrazolo[4,3-b][1,4]oxazin-7(1H)-yl)methanone], the IC50 at URAT1 [1] is 69 nM; against CYP2C9, over 50000 nM; on URAT1 [2] it was 29 nM.

In the case of `O=C(c1cc(Br)c(O)c(Br)c1)N1CCOc2cn[nH]c21` [Example 3, (3,5-dibromo-4-hydroxyphenyl)(5,6-dihydropyrazolo[4,3-b][1,4]oxazin-7(1H)-yl)methanone], it took 130 nM to reach half-maximal inhibition on URAT1 [1] (IC50).

`C[C@H]1CN(C(=O)c2cc(Br)c(O)c(Br)c2)c2c(cnn2C)O1` [Example 5, (S)-(3,5-dibromo-4-hydroxyphenyl) (1,5-dimethyl-5,6-dihydropyrazolo[4,3-b][1,4]oxazin-7(1H)-yl)methanone]: the results for the IC50 at URAT1 [1], on CYP2C9 and against URAT1 [2] were 40 nM, 18900 nM and 93 nM, respectively.

`Cc1nn(C)c2c1OCCN2C(=O)c1cc(Br)c(O)c(Br)c1` [Example 10, (3,5-dibromo-4-hydroxyphenyl)(1,3-dimethyl-5,6-dihydropyrazolo[4,3-b] [1,4]oxazin-7(1H)-yl)methanone]: the values for the IC50 against URAT1 [1], against CYP2C9 and at URAT1 [2] were under 30 nM, 16200 nM and 85 nM, respectively.

Take `Cn1ncc2c1N(C(=O)c1cc(Br)c(O)c(Br)c1)CCC2` [Example 11, (3,5-dibromo-4-hydroxyphenyl)(1-methyl-1,4,5,6-tetrahydro-7H-pyrazolo [3,4-b]pyridin-7-yl)methanone]: the half-maximal inhibitory concentration (IC50) against URAT1 [1] was 100 nM.

As to `Cn1ncc2c1N(C(=O)c1cc(Br)c(O)c(Br)c1)CC(C)(C)O2` [Example 12, (3,5-dibromo-4-hydroxyphenyl)(1,5,5-trimethyl-5,6-dihydropyrazolo[4,3-b] [1,4]oxazin-7(1H)-yl)methanone], the IC50 against URAT1 [2] came to 80 nM.

Consider `Cc1nn(C)c2c1OC(C)(C)CN2C(=O)c1cc(Br)c(O)c(Br)c1` [Example 13, (3,5-dibromo-4-hydroxyphenyl)(1,3,5,5-tetramethyl-5,6-dihydropyrazolo[4,3-b][1,4]oxazin-7(1H)-yl)methanone], for which the IC50 at URAT1 [2] stood at 84 nM.

With `Cn1ncc2c1N(C(=O)c1cc(Cl)c(O)c(Cl)c1)CCO2` [Example 14, (3,5-dichloro-4-hydroxyphenyl)(1-methyl-5,6-dihydropyrazolo[4,3-b][1,4]oxazin-7(1H)-yl)methanone], the half-inhibitory concentration (IC50) against URAT1 [2] was determined as 252 nM.

`Cc1nn(C)c2c1O[C@@H](C)CN2C(=O)c1cc(Br)c(O)c(Br)c1` [Example 15, (S)-(3,5-dibromo-4-hydroxyphenyl) (1,3,5-trimethyl-5,6-dihydropyrazolo[4,3-b][1,4]oxazin-7(1H)-yl)methanone]: the concentration for half-maximal inhibition (IC50) at URAT1 [2] was found to be 126 nM.

On to `Cn1ncc2c1N(C(=O)c1cc(Br)c(O)c(Br)c1)CC1(CC1)O2` [Example 16, (3,5-dibromo-4-hydroxyphenyl)(1′-methyl-1′H-spiro[cyclopropane-1,5′-pyrazolo[4,3-b][1,4]oxazin]-7′(6′H)-yl) methanone], for which the IC50 at CYP2C9 stood at 4250 nM; against URAT1 [2] it was 48 nM.

With `Cc1nn(C)c2c1OC1(CC1)CN2C(=O)c1cc(Br)c(O)c(Br)c1` [Example 17, (3,5-dibromo-4-hydroxyphenyl)(1′,3′-dimethyl-1′H-spiro[cyclopropane-1,5′-pyrazolo[4,3-b][1,4]oxazin]-7′(6′H)-yl)methanone], the half-maximal inhibitory concentration (IC50) against CYP2C9 turned out to be 10400 nM; against URAT1 [2], 60 nM.

Regarding `Cc1nn(C)c2c1O[C@H](C)CN2C(=O)c1cc(Br)c(O)c(Br)c1` [Example 18], the figures for the half-maximal inhibitory concentration (IC50) against CYP2C9 and against URAT1 [2] were 16000 nM and 37 nM, respectively.

Take `Cn1cc2c(n1)N(C(=O)c1cc(Br)c(O)c(Br)c1)CCO2` [Example 19, (3,5-dibromo-4-hydroxyphenyl)(2-methyl-5,6-dihydropyrazolo[4,3-b][1,4]oxazin-7(2H)-yl)methanone]: the midpoint of inhibition at URAT1 [1], the IC50, lay at 339 nM.

Regarding `O=C(c1cc(Br)c(O)c(Br)c1)N1CCOc2[nH]ncc21` [Example 20, (3,5-dibromo-4-hydroxyphenyl)(5,6-dihydropyrazolo[3,4-b][1,4]oxazin-4(1H)-yl)methanone], the concentration for half-maximal inhibition (IC50) against URAT1 [1] stood at 235 nM.

In the case of `Cn1ncc2c1OCCN2C(=O)c1cc(Br)c(O)c(Br)c1` [Example 21, (3,5-dibromo-4-hydroxyphenyl)(1-methyl-5,6-dihydropyrazolo[3,4-b][1,4]oxazin-4(1H)-yl)methanone], at URAT1 [1], the IC50 is 297 nM.

The compound `Cc1nn(C)c2c1SCCN2C(=O)c1cc(Br)c(O)c(Br)c1` [Example 23, (3,5-dibromo-4-hydroxyphenyl)(1,3-dimethyl-5,6-dihydropyrazolo[4,3-b][1,4]thiazin-7(1H)-yl)methanone] had an IC50 on URAT1 [2] of 189 nM.
